Results from US5220050A, “Peptide mimetic compounds useful as platelet aggregation inhibitors” (G. D. Searle & Co., priority 1991, dated 1993).
pIC50: −log10 of the molar value. Counter-ions that a name gives are not always drawn.

tested on: Platelet Aggregation in Dog PRP; experiment: In-Vitro Platelet Aggregation in PRP (ADP induced); assay type: cell-based; conditions: Canis lupus familiaris, Platelet, in-vitro
Procedure: Healthy male or female dogs were fasted for 8 hours prior to drawing blood; then 30 ml whole blood was collected using a butterfly needle and 30 cc plastic syringe with 3 ml of 0.129 M buffered sodium citrate (3.8%). The syringe was rotated carefully as blood was drawn to mix the citrate. Platelet-rich plasma (PRP) was prepared by centrifugation at 975×g for 3.17 minutes at room temperature, allowing the centrifuge to coast to a stop without braking. The PRP was removed from the blood with a plastic pipette and placed in a plastic capped, 50 ml Corning conical sterile centrifuge tube which was held at room temperature. Platelet poor plasma (PPP) was prepared by centrifuging the remaining blood at 2000×g for 15 minutes at room temperature allowing the centrifuge to coast to a stop without braking. The PRP was adjusted with PPP to a count of 2-3×10^8 platelets per ml. 400 μl of the PRP preparation and 50 μl of the compound to be tested or saline were preincubated for 1 minute at 37° C. in a BioData aggregometer (BioData, Horsham, Pa.). 50 μl of adenosine 5'diphosphate (ADP) (50 μm final concentration) was added to the cuvettes and the aggregation was monitored for 1 minute. All compounds are tested in duplicate. Results are calculated as follows:
Percent of control=[(maximal OD minus initial OD of compound) divided by (maximal OD minus initial OD of control saline)]×100. The % inhibition=100-(percent of control).

Compound	pIC50
N=C(N)c1ccc(CCCCC(=O)NC(CC(=O)O)C2CC=CCC2)cc1 (stereo not drawn) [β-[[5-[4-(aminoiminomethyl)phenyl]-1-oxopentyl]amino]-3-cyclohexene-1-propanoic acid]	5.40
N=C(N)c1ccc(CCCCC(=O)NC(CC(=O)O)c2cccc(C(F)(F)F)c2)cc1 (stereo not drawn) [β-[[5-[4-(aminoiminomethyl)phenyl]-1-oxopentyl]amino]-3-(trifluoromethyl)benzenepropanoic acid]	5.15
C[C@H](CC(=O)O)NC(=O)CCCCc1ccc(C(=N)N)cc1 [3R-[[5-[4-(aminoiminomethyl)phenyl]-1-oxopentyl]amino]butanoic acid]	5.89
N=C(N)c1ccc(CCCCC(=O)NC(CCc2ccccc2)CC(=O)O)cc1 (stereo not drawn) [β-[[5-[4-(aminoiminomethyl)phenyl]-1-oxopentyl]amino]benzenepentanoic acid]	5.52
N=C(N)c1ccc(CCCCC(=O)NC(CC(=O)O)c2cccs2)cc1 (racemic) [(±)-β-[[5-[4-(aminoiminomethyl)phenyl]-1-oxopentyl]amino]-2-thiophenepropanoic acid]	5.77
N=C(N)c1ccc(CCCCC(=O)NC(CC(=O)O)c2cccc(F)c2)cc1 (stereo not drawn) [β-[[5-[4-(aminoiminomethyl)phenyl]-1-oxopentyl]amino]-3-fluorobenzenepropanoic acid]	5.89
COc1ccc(OC)c(C(CC(=O)O)NC(=O)CCCCc2ccc(C(=N)N)cc2)c1 (stereo not drawn) [β-[[5-[4-(aminoiminomethyl)phenyl]-1-oxopentyl]amino]-2,5-dimethoxybenzenepropanoic acid]	5.05
CC(CCC(=O)NC(C)CC(=O)O)Cc1ccc(C(=N)N)cc1 (centres unmarked) [3-[[5-[4-(aminoiminomethyl)phenyl]-4-methyl-1-oxopentyl]amino]butanoic acid]	5.90
N=C(N)c1ccc(CCCCC(=O)NC(CC(=O)O)c2ccccc2F)cc1 (stereo not drawn) [β-[[5-[4-(aminoiminomethyl)phenyl]-1-oxopentyl]amino]-2-fluorobenzenepropanoic acid]	5.28
N#Cc1cccc(C(CC(=O)O)NC(=O)CCCCc2ccc(C(=N)N)cc2)c1 (stereo not drawn) [β-[[5-[4-(aminoiminomethyl)phenyl]-1-oxopentyl]amino]-3-cyanobenzenepropanoic acid]	5.85
N=C(N)c1ccc(CCCCC(=O)NC(CC(=O)O)c2ccc(C(F)(F)F)cc2)cc1 (stereo not drawn) [β-[[5-[4-(aminoiminomethyl)phenyl]-1-oxopentyl]amino]-4-(trifluoromethyl)benzenepropanoic acid]	5.37
N=C(N)c1ccc(CCCCC(=O)NC(CC(=O)O)c2ccc(C(=N)N)cc2)cc1 (stereo not drawn) [4-(aminoiminomethyl)-β-[[5-[4-(aminoiminomethyl)phenyl]-1-oxopentyl]amino]benzenepropanoic acid]	5.74
N=C(N)c1ccc(CCCCC(=O)NC(CC(=O)O)c2ccc(Cl)cc2)cc1 (stereo not drawn) [β-[[5-[4-(aminoiminomethyl)phenyl]-1-oxopentyl]amino]-4-chlorobenzenepropanoic acid]	5.55
N=C(N)c1ccc(CCCCC(=O)NC(CC(=O)O)c2ccccc2O)cc1 (racemic) [(±)-β-[[5-[4-(aminoiminomethyl)phenyl]-1-oxopentyl]amino-2-hydroxybenzenepropanoic acid]	5.70
COc1ccc(C(CC(=O)O)NC(=O)CCCCc2ccc(C(=N)N)cc2)c(O)c1 (racemic) [(±)-β-[[5-[4-(aminoiminomethyl)phenyl]-1-oxopentyl]amino]-2-hydroxy-4-methoxybenzenepropanoic acid]	6.16
N=C(N)c1ccc(CCCCC(=O)NC(CC(=O)O)c2cccc(Oc3ccccc3)c2)cc1 (stereo not drawn) [β-[[5-[4-(aminoiminomethyl)phenyl]-1-oxopentyl]amino]-3-phenoxybenzenepropanoic acid]	5.29
N=C(N)c1ccc(CCCCC(=O)NC(CC(=O)O)c2ccc(F)cc2)cc1 (stereo not drawn) [β-[[5-[4-(aminoiminomethyl)phenyl]-1-oxopentyl]amino]-4-fluorobenzenepropanoic acid]	5.52
N=C(N)c1ccc(CCCCC(=O)NC(CC(=O)O)c2ccccn2)cc1 (stereo not drawn) [β-[[5-[4-(aminoiminomethyl)phenyl]-1-oxopentyl]amino]-2-pyridinepropanoic acid]	5.64
N=C(N)c1ccc(CCCCC(=O)NC(CC(=O)O)c2cc(Cl)cc(Cl)c2)cc1 (stereo not drawn) [β-[[5-[4-(aminoiminomethyl)phenyl]-1-oxopentyl]amino]-3,5-dichlorobenzenepropanoic acid]	5.22
N=C(N)c1ccc(CCCCC(=O)NC(CCCCc2ccccc2)CC(=O)O)cc1 (stereo not drawn) [β-[[5-[4-(aminoiminomethyl)phenyl]-1-oxopentyl]amino]benzeneheptanoic acid]	5.15

Compound	pIC50
N=C(N)c1ccc(CCCCC(=O)NC(CC(=O)O)c2ccc(OCc3ccccc3)cc2)cc1 (stereo not drawn) [β-[[5-[4-(aminoiminomethyl)phenyl]-1-oxopentyl]amino]-4-(phenylmethoxy)benzenepropanoic acid]	5.92
N=C(N)c1ccc(CCCCC(=O)NCCC(=O)OCc2ccccc2)cc1 [N-[5-[4-(Aminoiminomethyl)phenyl]-1-oxopentyl]-β-alanine, phenylmethyl ester]	5.30
N#Cc1ccc(C(CC(=O)O)NC(=O)CCCCc2ccc(C(=N)N)cc2)cc1 (stereo not drawn) [β-[[5-[4-(aminoiminomethyl)phenyl]-1-oxopentyl]amino]-4-cyanobenzenepropanoic acid]	5.89
N=C(N)c1ccc(CCCCC(=O)NC(CC(=O)O)c2ccc(O)cc2)cc1 (stereo not drawn) [β-[[5-[4-(aminoiminomethyl)phenyl]-1-oxopentyl]amino]-4-hydroxybenzenepropanoic acid]	6.10
N=C(N)c1ccc(CCCCC(=O)NC(CC(=O)O)c2ccc3c(c2)OCO3)cc1 (stereo not drawn) [β-[[5-[4-(aminoiminomethyl)phenyl]-1-oxopentyl]amino]-1,3-benzodioxole-5-propanoic acid]	6.55
N=C(N)c1ccc(CCCCC(=O)NCC(F)C(=O)O)cc1 (stereo not drawn) [N-[5-[4-(Aminoiminomethyl]phenyl]-1-oxopentyl]-2-fluoro-β-alanine]	4.52
N=C(N)c1ccc(CCCCC(=O)NC(CC(=O)O)c2ccc(Oc3ccccc3)cc2)cc1 (stereo not drawn) [β-[[5-[4-(aminoiminomethyl)phenyl]-1-oxopentyl]amino]-4-phenoxybenzenepropanoic acid]	5.70
N=C(N)c1ccc(CCCCC(=O)NCC(O)C(=O)O)cc1 (stereo not drawn) [N-[5-[4-(Aminoiminomethyl)phenyl]-1-oxopentyl]-2-hydroxy-β-alanine]	5.00
N=C(N)c1ccc(CCCCC(=O)NC(CC(=O)O)c2ccc(-c3ccccc3)cc2)cc1 (stereo not drawn) [β-[[5-[4-(Aminoiminomethyl)phenyl)-1-oxopentyl]amino][1,1'-biphenyl]-4-propanoic acid, acetate salt]	5.64
N=C(N)c1ccc(CCCCC(=O)NCCC(=O)O)cc1 [N-[5-[4 (aminoiminomethyl)phenyl]-1-oxopentyl]-β-alanine]	5.22
N=C(N)c1ccc(C#CCCC(=O)NC(CC(=O)O)c2ccccc2)cc1 (stereo not drawn) [β-[[5-[4-(aminoiminomethyl)phenyl]-1-oxo-4-pentynyl]amino]benzenepropanoic acid]	5.74
C=CC(CC(=O)O)NC(=O)CCCCc1ccc(C(=N)N)cc1 (centres unmarked) [3-[[5-[4-(aminoiminomethyl)phenyl]-1-oxopentyl]amino]-4-pentenoic acid]	5.04
N=C(N)c1ccc(CCCCC(=O)NC(CC(=O)O)c2ccc(Cl)c(Cl)c2)cc1 (stereo not drawn) [β-[[5-[4-(aminoiminomethyl)phenyl]-1-oxopentyl]amino]-3,4-dichlorobenzenepropanoic acid]	5.17
COc1cc(OC)cc(C(CC(=O)O)NC(=O)CCCCc2ccc(C(=N)N)cc2)c1 (stereo not drawn) [β-[[5-[4-(aminoiminomethyl)phenyl]-1-oxopentyl]amino]-3,5-dimethoxybenzenepropanoic acid]	6.48
C[n+]1cccc(C(CC(=O)O)NC(=O)CCCCc2ccc(C(=N)N)cc2)c1 (centres unmarked) [3-[1-[[5-[4-(aminoiminomethyl)phenyl]-1-oxopentyl]amino]-2-carboxyethyl]-1-methylpyridinium chloride]	5.24
N=C(N)c1ccc(CCCCC(=O)NC(CC(=O)O)c2ccc(Br)cc2)cc1 (stereo not drawn) [β-[[5-[4-(aminoiminomethyl)phenyl]-1-oxopentyl]amino]-4-bromobenzenepropanoic acid]	5.51
COc1cccc(C(CC(=O)O)NC(=O)CCCCc2ccc(C(=N)N)cc2)c1 (stereo not drawn) [β-[[5-[4-(aminoiminomethyl)phenyl]-1-oxopentyl]amino]-3-methoxybenzenepropanoic acid]	5.89
CCOc1ccc(C(CC(=O)O)NC(=O)CCCCc2ccc(C(=N)N)cc2)cc1 (stereo not drawn) [β-[[5-[4-(aminoiminomethyl)phenyl]-1-oxopentyl]amino]-4-ethoxybenzenepropanoic acid]	6.40
COc1ccc(C(CC(=O)O)NC(=O)CCCCc2ccc(C(=N)N)cc2)cc1OC (stereo not drawn) [β-[[5-[4-(aminoiminomethyl)phenyl]-1-oxopentyl]amino]-3,4-dimethoxybenzenepropanoic acid]	6.28
N=C(N)c1ccc(CCCCC(=O)NC(CC(=O)O)Cc2ccccc2)cc1 (stereo not drawn) [β-[5-[4-(Aminoiminomethyl)phenyl]-1-oxopentyl]amino]benzenebutanoic acid]	5.52

same assay, conditions: test concentration 1 × 10^-5

Compound	% Inhibition [%]
βR-[[5-[4-(aminoiminomethyl)phenyl]-1-oxopentyl]amino]-1-naphthalenebutanoic acid	5
